Laboratory results reported in the CheMixHub viscosity set.
Several values for one entry are separate records, joined by “and”; a condition that tells them apart may be missing. Equal entries are not always repeated.

Assay: xn = mol fraction of the nth substance listed

CCC(C)O (configuration not stated) + CO
298.15 K, 101.33 kPa
Details | viscosity [mPa·s]
x2 = 0.1153 | 2.681
x2 = 0.2124 | 2.341
x2 = 0.2972 | 2.063
x2 = 0.3974 | 1.765
x2 = 0.4714 | 1.563
x2 = 0.5959 | 1.263
x2 = 0.671 | 1.102
x2 = 0.8045 | 0.852
x2 = 0.8927 | 0.711

O=S1(=O)CCCC1 + CO
viscosity [mPa·s], 101 kPa
Details | 298.15 K | 303.15 K | 308.15 K | 313.15 K | 323.15 K
x1 = 0.0496 | 0.607 | 0.569 | – | 0.498 | 0.437
x1 = 0.068 | – | 0.5856 | 0.5474 | 0.5133 | –
x1 = 0.0966 | 0.694 | 0.648 | – | 0.565 | 0.495
x1 = 0.1103 | – | 0.6512 | 0.6081 | 0.5686 | –
x1 = 0.1632 | 0.814 | 0.757 | – | 0.661 | 0.579
x1 = 0.1658 | – | 0.756 | 0.7042 | 0.6574 | –
x1 = 0.2274 | – | 0.8999 | 0.8344 | 0.7787 | –
x1 = 0.2282 | 0.985 | 0.916 | – | 0.792 | 0.686
x1 = 0.306 | 1.227 | 1.137 | – | 0.986 | 0.867
x1 = 0.3087 | – | 1.13 | 1.047 | 0.9753 | –
x1 = 0.3969 | 1.587 | 1.458 | – | 1.238 | 1.062
x1 = 0.4056 | – | 1.495 | 1.378 | 1.279 | –
x1 = 0.5037 | 2.208 | 2.022 | – | 1.687 | 1.467
x1 = 0.5284 | – | 2.142 | 1.96 | 1.803 | –
x1 = 0.6337 | 3.233 | 2.982 | – | 2.466 | 2.125
x1 = 0.6422 | – | 3.025 | 2.753 | 2.515 | –
x1 = 0.7703 | – | 4.551 | 4.1 | 3.722 | –
x1 = 0.7949 | 5.516 | 5.126 | – | 4.165 | 3.476

Cc1cccc(C)c1 + COCCO
viscosity [mPa·s], 101 kPa
Details | 298.15 K | 308.15 K
x2 = 0.0519 | 0.598 | 0.513
x2 = 0.1498 | 0.635 | 0.543
x2 = 0.2504 | 0.681 | 0.58
x2 = 0.3476 | 0.737 | 0.624
x2 = 0.452 | 0.81 | 0.68
x2 = 0.4991 | 0.848 | 0.709
x2 = 0.5538 | 0.897 | 0.746
x2 = 0.6476 | 0.996 | 0.819
x2 = 0.7504 | 1.127 | 0.915
x2 = 0.8491 | 1.282 | 1.026
x2 = 0.9558 | 1.491 | 1.172

Nc1ccccc1Cl + COCCO
303.15 K, 101 kPa
Details | viscosity [mPa·s]
x1 = 0.093 | 2.184
x1 = 0.157 | 2.388
x1 = 0.2242 | 2.597
x1 = 0.3168 | 2.811
x1 = 0.415 | 3.024
x1 = 0.5093 | 3.223
x1 = 0.6253 | 3.414
x1 = 0.7713 | 3.581
x1 = 0.8914 | 3.711

O=S1(=O)CCCC1 + COCCO
303.15 K, 101 kPa
Details | viscosity [mPa·s]
x1 = 0.0483 | 1.2
x1 = 0.0994 | 1.054
x1 = 0.1962 | 1.489
x1 = 0.2953 | 2.053
x1 = 0.3486 | 2.251
x1 = 0.4007 | 2.703
x1 = 0.4569 | 3.258
x1 = 0.4997 | 3.863
x1 = 0.5991 | 4.997
x1 = 0.7126 | 6.301
x1 = 0.7971 | 7.413
x1 = 0.8496 | 8.345
x1 = 0.8986 | 9.013

Nc1ccccc1Cl + COc1ccccc1
viscosity [mPa·s], 101 kPa
Details | x2 = 0.1009 | x2 = 0.1969 | x2 = 0.2948 | x2 = 0.3986 | x2 = 0.4961 | x2 = 0.5977 | x2 = 0.6935 | x2 = 0.7952 | x2 = 0.9001
298.15 K | 2.72 | 2.454 | 2.19 | 1.958 | 1.746 | 1.566 | 1.404 | 1.27 | 1.124
303.15 K | 2.42 | 2.196 | 1.969 | 1.762 | 1.583 | 1.427 | 1.285 | 1.156 | 1.044
308.15 K | 2.162 | 1.971 | 1.772 | 1.595 | 1.438 | 1.302 | 1.176 | 1.064 | 0.9578
313.15 K | 1.939 | 1.773 | 1.6 | 1.446 | 1.309 | 1.189 | 1.08 | 0.9804 | 0.8856

Cc1ccc(O)cc1 + CS(C)=O
viscosity [mPa·s], 101 kPa
Details | x1 = 0.0702 | x1 = 0.1453 | x1 = 0.2257 | x1 = 0.3119 | x1 = 0.4047 | x1 = 0.505 | x1 = 0.5778 | x1 = 0.7312 | x1 = 0.8595
303.15 K | 2.036 | 2.307 | 2.913 | 3.456 | 4.277 | 5.056 | 6.524 | 7.908 | 9.499
308.15 K | 1.792 | 2.04 | 2.565 | 3.062 | 3.709 | 4.324 | 5.403 | 6.543 | 7.655
313.15 K | 1.604 | 1.833 | 2.293 | 2.698 | 3.24 | 3.769 | 4.649 | 5.745 | 6.083
318.15 K | 1.476 | 1.668 | 2.054 | 2.417 | 2.857 | 3.328 | 4.01 | 4.945 | 5.111

Cc1cccc(C)c1 + CS(C)=O
viscosity [mPa·s], 101.3 kPa
Details | x2 = 0.1004 | x2 = 0.2027 | x2 = 0.3047 | x2 = 0.4044 | x2 = 0.5057 | x2 = 0.6045 | x2 = 0.705 | x2 = 0.803 | x2 = 0.9011
298.15 K | 0.631 | 0.7 | 0.782 | 0.877 | 0.99 | 1.116 | 1.269 | 1.45 | 1.68
303.15 K | 0.593 | 0.657 | 0.73 | 0.815 | 0.914 | 1.026 | 1.168 | 1.325 | 1.528
308.15 K | 0.561 | 0.617 | 0.684 | 0.76 | 0.85 | 0.952 | 1.076 | 1.219 | 1.397

Cc1ccc(O)cc1 + C[N+](C)(C)CCO.[Cl-]
Details | viscosity
293.15 K, 101 kPa, x2 = 0.333 | 133.7 mPa·s
298.15 K, 101 kPa, x2 = 0.333 | 102 mPa·s
298.15 K, 101.33 kPa, x1 = 0.7 | 138.7 mPa·s
298.15 K, 101.33 kPa, x1 = 0.8 | 75.19 mPa·s and 55.19 mPa·s and 47.26 mPa·s
298.15 K, 101.33 kPa, x1 = 0.9 | 41.11 mPa·s
303.15 K, 101 kPa, x2 = 0.333 | 75.5 mPa·s
308.15 K, 101 kPa, x2 = 0.333 | 58.57 mPa·s
313.15 K, 101 kPa, x2 = 0.333 | 45.82 mPa·s
318.15 K, 101 kPa, x2 = 0.333 | 36.17 mPa·s
323.15 K, 101 kPa, x2 = 0.333 | 28.83 mPa·s

O=C[C@H](O)[C@H](O)[C@H](O)CO + C[N+](C)(C)CCO.[Cl-]
100 kPa, x2 = 0.6
Details | viscosity [mPa·s]
313.2 K | 575.5
318.2 K | 374.3

O=S(=O)(Cl)Cl + Cc1cc(C)cc(C)c1
298.15 K, 101 kPa
Details | viscosity [mPa·s]
x1 = 0.172 | 0.6735
x1 = 0.323 | 0.6885
x1 = 0.515 | 0.6997
x1 = 0.645 | 0.7028
x1 = 0.669 | 0.7025
x1 = 0.804 | 0.6976

Cc1cccc(C)c1 + Cc1ccc(C)cc1
viscosity [mPa·s], 101.3 kPa
Details | 298.15 K | 303.15 K
x1 = 0.0856 | – | 0.5666
x1 = 0.0857 | 0.6046 | –
x1 = 0.1427 | – | 0.5659
x1 = 0.1428 | 0.6026 | –
x1 = 0.2528 | 0.5998 | 0.5651
x1 = 0.3046 | – | 0.5648
x1 = 0.3922 | 0.5968 | 0.5643
x1 = 0.474 | 0.5955 | 0.5641
x1 = 0.5823 | – | 0.5636
x1 = 0.5824 | 0.5942 | –
x1 = 0.6995 | 0.5935 | 0.5627
x1 = 0.8337 | 0.5928 | –
x1 = 0.8339 | – | 0.5614
x1 = 0.9538 | 0.5899 | 0.5602

O=S1(=O)CCCC1 + Cc1ccc(C)cc1
viscosity
Details | x2 = 0.1118 | x2 = 0.2206 | x2 = 0.3266 | x2 = 0.4301 | x2 = 0.531 | x2 = 0.6293 | x2 = 0.7252 | x2 = 0.8191 | x2 = 0.9106
303.15 K, 101 kPa | 6.156 mPa·s and 6.156 mPa·s | 4.093 mPa·s and 4.093 mPa·s | 2.887 mPa·s and 2.887 mPa·s | 2.143 mPa·s and 2.143 mPa·s | 1.608 mPa·s and 1.608 mPa·s | 1.253 mPa·s and 1.253 mPa·s | 0.989 mPa·s and 0.9893 mPa·s | 0.812 mPa·s and 0.8122 mPa·s | 0.673 mPa·s and 0.6727 mPa·s
303.15 K, 101.3 kPa | 6.156 mPa·s | 4.093 mPa·s | 2.887 mPa·s | 2.143 mPa·s | 1.608 mPa·s | 1.253 mPa·s | 0.9893 mPa·s | 0.8122 mPa·s | 0.6727 mPa·s
313.15 K, 101 kPa | 4.883 mPa·s | 3.341 mPa·s | 2.384 mPa·s | 1.791 mPa·s | 1.351 mPa·s | 1.066 mPa·s | 0.8516 mPa·s | 0.7111 mPa·s | 0.5929 mPa·s
323.15 K, 101 kPa | 3.964 mPa·s and 3.964 mPa·s | 2.74 mPa·s and 2.74 mPa·s | 2 mPa·s and 2 mPa·s | 1.526 mPa·s and 1.526 mPa·s | 1.166 mPa·s and 1.166 mPa·s | 0.925 mPa·s and 0.9254 mPa·s | 0.747 mPa·s and 0.7473 mPa·s | 0.627 mPa·s and 0.6269 mPa·s | 0.53 mPa·s and 0.53 mPa·s
323.15 K, 101.3 kPa | 3.964 mPa·s | 2.74 mPa·s | 2 mPa·s | 1.526 mPa·s | 1.166 mPa·s | 0.9254 mPa·s | 0.7473 mPa·s | 0.6269 mPa·s | 0.53 mPa·s
